Target: T1, CDK2 (Homo sapiens, UniProt P24941)
T1 construct: High-Throughput Measurement of Cellular Endogenous CDK2; endogenous in cells; host or cells: OVCAR3
Test: Inhibition of CDK2: phospho-Rb (S807/811) HTRF measurement in OVCAR3 cells, 24 h
Format: cell-based
Settings: 24 h compound treatment, read-out: pRB_OVCAR3_24h
Method in brief: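 IC50 came from a four-parameter fit of DMSO-normalized TR-FRET ratios (665/620 nm) reporting phospho-Rb S807/811. Lysates were taken from OVCAR3 cultures treated 24 h with compound (0.3 to 10,000 nM) and incubated 4 h at room temperature with the antibody pair.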

Compound	IC50 [nM]
Cn1nc(N2CCC(=O)NC2=O)c2ccc(C3CCN(Cc4cnn(-c5cccc(S(=O)(=O)N6CCC(Nc7ncc(Cl)cn7)CC6)c5)c4)CC3)cc21 [Example 131, 1-(6-(1-((1-(3-((4-((5-chloropyrimidin-2-yl)amino)piperidin-1-yl)sulfonyl)phenyl)-1H-pyrazol-4-yl)methyl)piperidin-4-yl)-1-methyl-1H-indazol-3-yl)dihydropyrimidine-2,4(1H,3H)-dione]	1 to 100
Cn1nc(N2CCC(=O)NC2=O)c2ccc(C3CCN(CC4CC5(C4)CN(c4cccc(S(=O)(=O)N6CCC(Nc7ncc(Cl)cn7)CC6)c4)C5)CC3)cc21 [Example 132, 1-(6-(1-((2-(3-((4-((5-chloropyrimidin-2-yl)amino)piperidin-1-yl)sulfonyl)phenyl)-2-azaspiro[3.3]heptan-6-yl)methyl)piperidin-4-yl)-1-methyl-1H-indazol-3-yl)dihydropyrimidine-2,4(1H,3H)-dione]	1 to 100
O=C1CCC(Nc2ccc(N3CCN(CC4CCN(c5cccc(S(=O)(=O)N6CCC(Nc7ncc(C(F)(F)F)cn7)CC6)c5)CC4)CC3)cc2)C(=O)N1 (stereo not drawn) [Example 133, 3-((4-(4-((1-(3-((4-((5-(trifluoromethyl)-pyrimidin-2-yl)amino)piperidin-1-yl)sulfonyl)phenyl)piperidin-4-yl)methyl)piperazin-1-yl)phenyl)amino)-piperidine-2,6-dione]	100 to 500
Cn1nc(N2CCC(=O)NC2=O)c2ccc(C3=CCN(CC4CCN(c5cccc(S(=O)(=O)N6CCC(Nc7ncc(Cl)cn7)CC6)c5)CC4)CC3)cc21 [Example 134, 1-(6-(1-((1-(3-((4-((5-chloropyrimidin-2-yl)amino)piperidin-1-yl)sulfonyl)phenyl)-piperidin-4-yl)methyl)-1,2,3,6-tetrahydropyridin-4-yl)-1-methyl-1H-indazol-3-yl)dihydropyrimidine-2,4(1H,3H)-dione]	100 to 500
Cn1nc(N2CCC(=O)NC2=O)c2ccc(C3CCN(C[C@@H]4CCN(c5cccc(S(=O)(=O)N6CCC(Nc7ncc(Cl)cn7)CC6)c5)C4)CC3)cc21 [Example 135, (S)-1-(6-(1-((1-(3-((4-((5-chloropyrimidin-2-yl)amino)piperidin-1-yl)sulfonyl)phenyl)-pyrrolidin-3-yl)methyl)piperidin-4-yl)-1-methyl-1H-indazol-3-yl)dihydropyrimidine-2,4(1H,3H)-dione]	100 to 500
Cn1nc(N2CCC(=O)NC2=O)c2ccc(C3CCN(CC4CCCN(c5cccc(S(=O)(=O)N6CCC(Nc7ncc(Cl)cn7)CC6)c5)CC4)CC3)cc21 (stereo not drawn) [Example 136, 1-(6-(1-((1-(3-((4-((5-chloropyrimidin-2-yl)amino)piperidin-1-yl)sulfonyl)phenyl)-azepan-4-yl)methyl)piperidin-4-yl)-1-methyl-1H-indazol-3-yl)dihydropyrimidine-2,4(1H,3H)-dione]	100 to 500
Cn1nc(N2CCC(=O)NC2=O)c2cc(C3CCN(CC4CCN(c5cccc(S(=O)(=O)N6CCC(Nc7ncc(C(F)(F)F)cn7)CC6)c5)CC4)CC3)ccc21 [Example 137, 1-(1-methyl-5-(1-((1-(3-((4-((5-(trifluoro-methyl)pyrimidin-2-yl)amino)piperidin-1-yl)sulfonyl)phenyl)piperidin-4-yl)methyl)-piperidin-4-yl)-1H-indazol-3-yl)dihydropyrimidine-2,4(1H,3H)-dione]	100 to 500
Cn1nc(N2CCC(=O)NC2=O)c2ccc(N3CCC(CN4CCN(c5cccc(S(=O)(=O)N6CCC(Nc7ncc(Cl)cn7)CC6)c5)CC4)CC3)cc21 [Example 138, 1-(6-(4-((4-(3-((4-((5-chloropyrimidin-2-yl)amino)piperidin-1-yl)sulfonyl)phenyl)-piperazin-1-yl)methyl)piperidin-1-yl)-1-methyl-1H-indazol-3-yl)dihydropyrimidine-2,4(1H,3H)-dione]	> 2500
Cn1nc(N2CCC(=O)NC2=O)c2ccc(C3CCN(Cc4ccc(C5CCN(S(=O)(=O)N6CCC(Nc7ncc(Cl)cn7)CC6)CC5)cc4)CC3)cc21 [Example 139, 1-(6-(1-(4-(1-((4-((5-chloropyrimidin-2-yl)amino)piperidin-1-yl)sulfonyl)piperidin-4-yl)benzyl)piperidin-4-yl)-1-methyl-1H-indazol-3-yl)dihydropyrimidine-2,4(1H,3H)-dione]	> 2500
Cn1nc(N2CCC(=O)NC2=O)c2ccc(C3CCN(CC4CCN(c5cc(S(=O)(=O)N6CCC(Nc7ncc(Cl)cn7)CC6)ccc5F)CC4)CC3)cc21 [Example 140, 1-(6-(1-((1-(5-((4-((5-chloropyrimidin-2-yl)amino)piperidin-1-yl)sulfonyl)-2-fluorophenyl)piperidin-4-yl)methyl)-piperidin-4-yl)-1-methyl-1H-indazol-3-yl)dihydropyrimidine-2,4(1H,3H)-dione]	1 to 100
CCOC(=O)C1(CN2CCC(c3ccc4c(N5CCC(=O)NC5=O)nn(C)c4c3)CC2)CCN(c2cccc(S(=O)(=O)N3CCC(Nc4ncc(Cl)cn4)CC3)c2)CC1 [Example 141, ethyl 1-(3-((4-((5-chloropyrimidin-2-yl)amino)piperidin-1-yl)sulfonyl)phenyl)-4-((4-(3-(2,4-dioxotetrahydropyrimidin-1(2H)-yl)-1-methyl-1H-indazol-6-yl)piperidin-1-yl)methyl)piperidine-4-carboxylate]	500 to 2500
Cn1nc(N2CCC(=O)NC2=O)c2ccc(C3CCN(CC4CCN(c5cc(S(=O)(=O)N6CCC(Nc7ncc(C(F)(F)F)cn7)CC6)ccc5F)CC4)CC3)cc21 [Example 142, 1-(6-(1-((1-(2-fluoro-5-((4-((5-(trifluoro-methyl)pyrimidin-2-yl)amino)piperidin-1-yl)sulfonyl)phenyl)piperidin-4-yl)methyl)-piperidin-4-yl)-1-methyl-1H-indazol-3-yl)dihydropyrimidine-2,4(1H,3H)-dione]	1 to 100
Cn1nc(N2CCC(=O)NC2=O)c2ccc(N3CCN(CC4CCN(c5cccc(S(=O)(=O)N6CCC(Nc7ncc(Cl)cn7)CC6)c5)CC4)C4CC43)cc21 (stereo not drawn) [Example 143, 1-(6-(5-((1-(3-((4-((5-chloropyrimidin-2-yl)amino)piperidin-1-yl)sulfonyl)phenyl)-piperidin-4-yl)methyl)-2,5-diazabicyclo-[4.1.0]heptan-2-yl)-1-methyl-1H-indazol-3-yl)dihydropyrimidine-2,4(1H,3H)-dione]	500 to 2500
Cn1nc(N2CCC(=O)NC2=O)c2ccc(C3CCN(C[C@H]4CCN(c5cccc(S(=O)(=O)N6CCC(Nc7ncc(Cl)cn7)CC6)c5)C4)CC3)cc21 [Example 144, (R)-1-(6-(1-((1-(3-((4-((5-chloropyrimidin-2-yl)amino)piperidin-1-yl)sulfonyl)phenyl)-pyrrolidin-3-yl)methyl)piperidin-4-yl)-1-methyl-1H-indazol-3-yl)dihydropyrimidine-2,4(1H,3H)-dione]	100 to 500
Cn1nc(N2CCC(=O)NC2=O)c2cccc(C3CCN(CC4CCN(c5cccc(S(=O)(=O)N6CCC(Nc7ncc(C(F)(F)F)cn7)CC6)c5)CC4)CC3)c21 [Example 145, 1-(1-methyl-7-(1-((1-(3-((4-((5-(trifluoro-methyl)pyrimidin-2-yl)amino)piperidin-1-yl)sulfonyl)phenyl)piperidin-4-yl)methyl)-piperidin-4-yl)-1H-indazol-3-yl)dihydropyrimidine-2,4(1H,3H)-dione]	100 to 500
Cn1nc(N2CCC(=O)NC2=O)c2ccc(C3CCN(Cc4cccc(S(=O)(=O)N5CC6(CC(Nc7ncc(C(F)(F)F)cn7)C6)C5)c4)CC3)cc21 [Example 146, 1-(1-methyl-6-(1-(3-((6-((5-(trifluoro-methyl)pyrimidin-2-yl)amino)-2-azaspiro[3.3]heptan-2-yl)sulfonyl)benzyl)-piperidin-4-yl)-1H-indazol-3-yl)dihydropyrimidine-2,4(1H,3H)-dione]	> 2500
Cn1nc(N2CCC(=O)NC2=O)c2ccc(C3CCN(Cc4cccc(S(=O)(=O)N5CC(Nc6ncc(C(F)(F)F)cn6)C5)c4)CC3)cc21 [Example 154, 1-(1-methyl-6-(1-(3-((3-((5-(trifluoromethyl)pyrimidin-2-yl)amino)azetidin-1-yl)sulfonyl)benzyl)piperidin-4-yl)-1H-indazol-3-yl)dihydropyrimidine-2,4(1H,3H)-dione]	> 2500
Cn1cc(-c2cnc(NC3CCN(S(=O)(=O)c4cccc(N5CCC(CN6CCC(c7ccc8c(N9CCC(=O)NC9=O)nn(C)c8c7)CC6)CC5)c4)CC3)nc2)cn1 [Example 155, 1-(1-methyl-6-(1-((1-(3-((4-((5-(1-methyl-1H-pyrazol-4-yl)pyrimidin-2-yl)amino)piperidin-1-yl)sulfonyl)phenyl)piperidin-4-yl)methyl)piperidin-4-yl)-1H-indazol-3-yl)dihydropyrimidine-2,4(1H,3H)-dione]	> 2500
Cn1nc(N2CCC(=O)NC2=O)c2ccc(C3CCN(CC4CCC(c5cccc(S(=O)(=O)N6CCC(Nc7ncc(Cl)cn7)CC6)c5)CC4)CC3)cc21 (stereo not drawn) [Example 156, 1-(6-(1-((4-(3-((4-((5-chloropyrimidin-2-yl)amino)piperidin-1-yl)sulfonyl)phenyl)cyclohexyl)methyl)piperidin-4-yl)-1-methyl-1H-indazol-3-yl)dihydropyrimidine-2,4(1H,3H)-dione 2,2,2-trifluoroacetate]	100 to 500
Cn1nc(N2CCC(=O)NC2=O)c2ccc(C3CCN(Cc4ccc(C5CCCN(S(=O)(=O)N6CCC(Nc7ncc(Cl)cn7)CC6)C5)cc4)CC3)cc21 (stereo not drawn) [Example 157, 1-(6-(1-(4-(1-((4-((5-chloropyrimidin-2-yl)amino)piperidin-1-yl)sulfonyl)piperidin-3-yl)benzyl)piperidin-4-yl)-1-methyl-1H-indazol-3-yl)dihydropyrimidine-2,4(1H,3H)-dione]	500 to 2500
Cn1nc(N2CCC(=O)NC2=O)c2ccc(C3CCN(CC4CCN(c5ccc(S(=O)(=O)N6CCC(Nc7ncc(Cl)cn7)CC6)cc5)CC4)CC3)cc21 [Example 158, 1-(6-(1-((1-(4-((4-((5-chloropyrimidin-2-yl)amino)piperidin-1-yl)sulfonyl)phenyl)piperidin-4-yl)methyl)piperidin-4-yl)-1-methyl-1H-indazol-3-yl)dihydropyrimidine-2,4(1H,3H)-dione]	500 to 2500

From patent US20260167623A1 (NIKANG THERAPEUTICS, INC., priority 2022, published 2026)
